Measurements taken from patent US12029747B2, “Use of baicalin in preparation of drug for treating tumor irresponsive to immune checkpoint inhibitors (ICIs)/undergoing hyperprogression” (BEIJING FRIENDSHIP HOSPITAL, CAPITAL MEDICAL UNIVERSITY, priority 2022, dated 2024).
“Also recorded” adds a separate entry of the source.

Assays:
[1] = system: Lewis lung carcinoma (LLC); experiment: Therapeutic effect in PD-1 mAb-irresponsive (NR-FMT) LLC-bearing mice: tumor volume and weight; type: in vivo, C57BL/6J mice; details: compared with NR-Control group, HQG intragastric daily, PD-1 mAb i.p. once every 3 days
Method: Pseudo-germ-free mouse modeling: Mice were treated with broad-spectrum antibiotics to construct pseudo-germ-free mouse models. 36 female C57BL/6J mice at 5 weeks (experimental animal license No.: SCXK (Beijing) 2019-0009) were purchased from Beijing Vital River Laboratory Animal Technology Co., Ltd. The mice were raised under the following conditions: cleanliness: SPF level; room temperature: 20° C. to 22° C.; humidity: 60±5%; 12 h light/12 h dark alternating cycle; and free eating and drinking. All animal protocols in this experiment were approved by the Beijing MaideiKangna Animal Ethics Committee, and animal experimental operations were conducted under the guidance of the Laboratory Animal Protection Association.
After the mice were raised adaptively for one week, the mice were intragastrically administered daily with 100 μL of ABT for consecutive 3 days. […]
Subcutaneous inoculation of LLC cells: An LLC cell suspension with a concentration of about 1×10^7 cells/mL was inoculated at a right axilla of a fecal bacteria-transplanted mouse with an inoculum size of 0.2 mL/mouse. The longest and shortest diameters of a tumor were measured by a vernier caliper, and a volume of the tumor=½ longest diameter×shortest diameter^2. […]
(§1) During administration, a body weight of mice was monitored every 3 days, and a tumor volume was measured.

Foxp3^+Treg cells = experiment: Detection of Foxp3+Treg cells in a tumor tissue by FCM (NR-FMT LLC-bearing mice); type: in vivo, C57BL/6J mice; details: flow cytometry of tumor tissue
[2] = Adverse reactions in treated tumor-bearing mice; type: in vivo; details: tumor-bearing mice irresponsive to ICIs
Method: as §1

Question: Which tumor volume [1] does the source give for O=C(O)[C@H]1O[C@@H](Oc2cc3oc(-c4ccccc4)cc(=O)c3c(O)c2O)[C@H](O)[C@@H](O)[C@@H]1O [HQG, baicalin] here?
Answer: Its tumor volume is “no significant difference; also recorded: not reduced”.

Question: And the tumor weight [1]?
Answer: The tumor weight was “no significant difference; also recorded: not reduced”.

Question: And the “number of Foxp3+Treg cells in a tumor” value (Foxp3^+Treg cells)?
Answer: The value was “not reduced”.

Question: What about the adverse reactions [2] of the same compound?
Answer: The adverse reactions was “no significant adverse reactions”.
